Reference: ChEMBL document CHEMBL1137806, “Cytotoxic oxoisoaporphine alkaloids from Menispermum dauricum” (J Nat Prod, 2001)

Legend:
Format in all cases: functional, cell-based
[1] = system: A549; experiment: Cytotoxicity against human A549 cells by MTT assay
[2] = system: MCF7; experiment: Cytotoxicity against human MCF7 cells by MTT assay
[3] = system: P388; experiment: Cytotoxicity against mouse P388 cells by MTT assay
[4] = system: HL-60; experiment: Cytotoxicity against human HL60 cells by MTT assay

| Compound | IC50 [1] [µM] | IC50 [2] [µM] | IC50 [3] [µM] | IC50 [4] [µM] |
| --- | --- | --- | --- | --- |
| COc1ccc2c(c1)C(=O)c1c(NCCc3ccc(O)cc3)c(OC)cc3ccnc-2c13 [DAURIOXOISOPORPHINE A] | 8.8 | 3 | 30.5 | > 50 |
| COc1ccc2c(c1)C(=O)c1c(N)c(OC)c(OC)c3ccnc-2c13 [DAURIOXOISOPORPHINE B] | > 50 | 6.2 | 9.6 | > 50 |
| COc1cc([C@@H]2c3cc4c(cc3[C@@H](O[C@@H]3O[C@@H]5CO[C@@H](C)O[C@H]5[C@H](O)[C@H]3O)[C@H]3COC(=O)[C@H]23)OCO4)cc(OC)c1O [ETOPOSIDE] | 0.5 | 12.3 | 0.1 | 5.4 |
